In ChEMBL document CHEMBL5518182, “Discovery and development of BI 1265162, an ENaC inhibitor for the treatment of cystic fibrosis” (Eur J Med Chem, 2024):
The source made the active and inactive calls. No cut-off for these calls is given here.

Assays:
[1] = Inhibition of ENaC in mouse M1 cells upto 10 uM by chamber assay; assay type: cell-based; settings: m1 cell
[2] = Permeability across basal to apical side in human Calu-3 cells at 0.1 to 300 uM measured upto 2 hrs by HPLC-MS/MS analysis; assay type: ADME, cell-based; settings: dose 0.1-300 µM, read-out: permeability
[3] = Solubility of compound at pH 5; assay type: physicochemical; settings: buffer
Lung [4] = test: Inhibition of lung water resorption in Wistar rat at 30 ug/kg, IT(Intratracheal) incubated for 3 hrs relative to control; assay type: functional
M1 cell = test: Inhibition of ENaC-mediated water resorption in mouse M1 cells at 3 uM by radiometric dilution assay relative to control; assay type: cell-based
Lung [5] = test: Inhibition of lung water resorption in Wistar rat at 3 ug/kg, IT(Intratracheal) incubated for 3 hrs relative to control; assay type: functional
[6] = biological target: Acetylcholinesterase (Homo sapiens) (UniProt P22303); test: Inhibition of AChE (unknown origin) at 10 uM relative to control
Sequence of Acetylcholinesterase (Homo sapiens) (P22303 whole entry): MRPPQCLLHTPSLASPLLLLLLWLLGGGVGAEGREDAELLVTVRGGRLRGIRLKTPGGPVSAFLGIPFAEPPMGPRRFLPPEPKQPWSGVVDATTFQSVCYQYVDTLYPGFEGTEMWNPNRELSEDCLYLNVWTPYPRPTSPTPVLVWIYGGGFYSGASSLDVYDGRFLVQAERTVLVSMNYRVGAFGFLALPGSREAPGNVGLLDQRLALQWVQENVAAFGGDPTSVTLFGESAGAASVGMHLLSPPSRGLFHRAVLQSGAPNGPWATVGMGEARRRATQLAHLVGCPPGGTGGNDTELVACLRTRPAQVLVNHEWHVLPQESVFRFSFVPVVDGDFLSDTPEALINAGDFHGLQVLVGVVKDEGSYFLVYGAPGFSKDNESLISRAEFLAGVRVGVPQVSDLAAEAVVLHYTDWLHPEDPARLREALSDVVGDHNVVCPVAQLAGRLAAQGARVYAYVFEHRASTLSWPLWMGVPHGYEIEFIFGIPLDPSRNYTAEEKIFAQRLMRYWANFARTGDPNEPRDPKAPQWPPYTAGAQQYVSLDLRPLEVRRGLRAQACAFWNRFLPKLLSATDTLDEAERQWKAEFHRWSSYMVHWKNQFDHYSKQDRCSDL

Lung [7] = test: Inhibition of lung water resorption in Wistar rat at 0.3 ug/kg, IT(Intratracheal) incubated for 3 hrs relative to control; assay type: functional
Rattus norvegicus [8] = test: Upregulation of serum aldosterone level in Han Wistar rat model of lung fluid absorption at 3 ug/kg, IT(Intratracheal) measured after 3 hrs relative to control; assay type: functional; settings: dose 3 µg/kg
Rattus norvegicus [9] = test: Acute effect on Han Wistar rat model of lung fluid absorption administered intratracheally measured after 3 hrs; assay type: functional; settings: route it(Intratracheal)
Rattus norvegicus [10] = species: Rattus norvegicus; test: Upregulation of serum potassium level in Han Wistar rat; assay type: functional, organism-based
Rattus norvegicus [11] = test: Effect on Han Wistar rat model of lung fluid absorption at ED70 administered intratracheally measured after 20 hrs; assay type: functional; settings: route it(Intratracheal)

SMILES	IC50 [1] [nM]	Papp B→A at 2 h, up to 300 µM [2] [×10⁻⁶ cm/s]	solubility [3] [%]	inhibition (M1 cell) [%]	further results
CCn1c(CNC(=O)c2ncc(C)nc2N)[n+](CC)c2ccccc21	1670	–	–	–	–
CCn1c(CNC(=O)c2nc(Cl)c(N)nc2N)[n+](CC)c2cc(OC)ccc21	0.3	–	–	–	–
CCn1c(CNC(=O)c2nc(Cl)cnc2N)[n+](CC)c2ccc(C(=O)NCCCN)cc21	–	0.22	> 2	–	–
CCn1c(CNC(=O)c2nc(Cl)cnc2N)[n+](CC)c2cc(C(=O)NCCCN)ccc21	3.6	–	–	83	inhibition in vivo at 0.03 mg/kg (Lung [4]): 24%; inhibition in vivo at 0.003 mg/kg (Lung [5]): 25%
CCn1c(CNC(=O)c2nc(Cl)c(N)nc2N)[n+](CC)c2ccccc21	0.2	–	–	–	–
Cn1c(CNC(=O)c2nc(Cl)c(N)nc2N)[n+](C)c2ccccc21	19	–	–	–	–
CCn1c(CNC(=O)c2nccnc2N)[n+](CC)c2ccccc21	169	–	–	–	–
CC[n+]1c(CNC(=O)c2nc(Cl)cnc2N)n(CC2CCOCC2)c2ccc(OCC(=O)N(Cc3nc(C)ccc3O)C[C@H](C)O)cc21	8.6	0.12	> 5	72	inhibition in vivo at 0.03 mg/kg (Lung [4]): 33%; inhibition in vivo at 0.003 mg/kg (Lung [5]): 17%; inhibition [6]: 18%; inhibition in vivo at 0.0003 mg/kg (Lung [7]): 8%
CC[n+]1c(CNC(=O)c2nc(Cl)c(N)nc2N)[nH]c2ccc(OC)cc21	26	–	–	–	–
CCn1c(CNC(=O)c2cc(Cl)cnc2N)[n+](CC)c2ccccc21	50	–	–	–	–
CC[n+]1c(CNC(=O)c2nc(Cl)cnc2N)n(CCOCCOCCO)c2ccc(OC)cc21	3	–	–	–	–
CCn1c(CNC(=O)c2nc(Cl)c(NC)nc2N)[n+](CC)c2ccccc21	305	–	–	–	–
CC[n+]1c(CNC(=O)c2nc(Cl)c(N)nc2N)n(CC(=O)O)c2ccc(OC)cc21	6.5	–	–	–	–
CCOP(=O)([O-])CCCOc1ccc2c(c1)[n+](CC)c(CNC(=O)c1nc(Cl)c(N)nc1N)n2CC1CCOCC1	8.3	0.17	< 5	81	–
CCn1c(CNC(=O)c2nc(Cl)c(N)nc2N)[n+](CC)c2cc(OCCCP(=O)([O-])OCCOC)ccc21	4.2	0.03	> 5	98	inhibition in vivo at 0.03 mg/kg (Lung [4]): 22%; inhibition in vivo at 0.003 mg/kg (Lung [5]): 12%
CCn1c(CNC(=O)c2nc(Cl)c(N)nc2N)[n+](CCO)c2cc(OC)ccc21	0.5	–	–	–	–
CCn1c(CNC(=O)c2nc(Cl)cnc2N)[n+](CC)c2cc(C(=O)N3CCC(N(C)C)CC3)ccc21	4.2	< 0.13	> 2	79	inhibition in vivo at 0.03 mg/kg (Lung [4]): 26%; inhibition in vivo at 0.003 mg/kg (Lung [5]): 25%; inhibition [6]: 11%; inhibition in vivo at 0.0003 mg/kg (Lung [7]): 19%
CCn1c(CNC(=O)c2nc(Cl)cnc2N)[n+](CC)c2ccccc21	0.7	–	–	–	–

SMILES	IC50 [1] [nM]	Papp B→A at 2 h, up to 300 µM [2] [×10⁻⁶ cm/s]	solubility [3] [%]	inhibition (M1 cell) [%]	further results
CCn1c(CNC(=O)c2nc(Cl)cnc2N)[n+](CC)c2cc(OCC(=O)NCCOCP(C)(C)=O)ccc21	3.4	–	–	72	inhibition in vivo at 0.03 mg/kg (Lung [4]): 30%; Activity (Rattus norvegicus [8]): <25%; inhibition in vivo at 0.003 mg/kg (Lung [5]): 31%; ED50 (Rattus norvegicus [9]): 0.09 µg/kg; ED70 (Rattus norvegicus [9]): 0.18 µg/kg; Activity (Rattus norvegicus [10]): inactive; inhibition [6]: 29%; inhibition in vivo at 0.0003 mg/kg (Lung [7]): 30%; Efficacy (Rattus norvegicus [11]): 31%
CC[n+]1c(CNC(=O)c2nc(Cl)c(N)nc2N)n(CC(=O)OC)c2ccc(OC)cc21	0.5	–	–	–	–
CCn1c(CNC(=O)c2nc(Cl)cnc2N)[n+](CC)c2cc(OCC(=O)OC)ccc21	0.7	0.25	–	65	–
CC[n+]1c(CNC(=O)c2nc(Cl)c(N)nc2N)n(CCOCCOCCO)c2ccc(OC)cc21	0.5	–	–	–	–
CCn1c(CNC(=O)c2nc(Cl)cnc2N)[n+](CC)c2cc(C(=O)N3CCC(N)CC3)ccc21	5	0.18	> 2	84	inhibition in vivo at 0.03 mg/kg (Lung [4]): 26%; inhibition in vivo at 0.003 mg/kg (Lung [5]): 13%
Cn1c(CNC(=O)c2nc(Cl)cnc2N)[n+](C)c2ccccc21	81	–	–	–	–
CCn1c(CNC(=O)c2nc(Cl)cnc2N)[n+](CCO)c2cc(OCC(=O)N3CCN(C(C)=O)CC3)ccc21	18	0.7	> 5	76	inhibition in vivo at 0.003 mg/kg (Lung [5]): 75%; inhibition [6]: 75%
CCOP(=O)([O-])CCCOc1ccc2c(c1)[n+](CC)c(CNC(=O)c1nc(Cl)c(N)nc1N)n2CCCC#N	19	0.22	> 5	83	inhibition in vivo at 0.03 mg/kg (Lung [4]): 16%; inhibition in vivo at 0.003 mg/kg (Lung [5]): 6%
CCn1c(CNC(=O)c2cc(Cl)ccc2N)[n+](CC)c2ccccc21	19	–	–	–	–
CCn1c(CNC(=O)c2nc(Cl)cnc2N)[n+](CC)c2cc(C(=O)OC)ccc21	3	–	–	–	–
CCn1c(CNC(=O)c2nc(Cl)c(N)nc2N)[n+](CCO)c2cc(OCC(=O)N3CCN(C(C)=O)CC3)ccc21	3.1	0.31	< 2	92	–
CCn1c(CNC(=O)c2nc(Cl)c(N)nc2N)[n+](CCCO)c2cc(OC)ccc21	0.3	–	–	–	–
CC[n+]1c(CNC(=O)c2nc(Cl)c(N)nc2N)n(CC2CCOCC2)c2ccc(OCC(=O)N(Cc3nc(C)ccc3O)C[C@H](C)O)cc21	2.5	0.2	< 2	63	–
CCn1c(CNC(=O)c2nc(Cl)cnc2N)[n+](CC)c2cc(C(=O)O)ccc21	29	0.17	–	–	–
CCn1c(CNC(=O)c2nc(Cl)cnc2N)[n+](CC)c2cc(OCC(=O)O)ccc21	16	0.22	–	70	–
CCn1c(CNC(=O)c2nc(Cl)c(N)nc2N)[n+](CC)c2cc(OCCCP(=O)([O-])OC[C@H]3CCCO3)ccc21	10	0.06	> 5	89	inhibition in vivo at 0.03 mg/kg (Lung [4]): 16%; inhibition in vivo at 0.003 mg/kg (Lung [5]): 14%
CCn1c(CNC(=O)c2nc(Cl)c(N)nc2N)nc2cc(OC)ccc21	168	–	–	–	–
CCn1c(CNC(=O)c2nc(Br)cnc2N)[n+](CC)c2ccccc21	0.7	–	–	–	–
